According to patent EP4775580A1, “COMPOUND, PHARMACEUTICAL COMPOSITION COMPRISING SAME, AND USE THEREOF” (Euregen Biopharma Co., Ltd., priority 2023, dated 2025):
pIC50: −log10 of the molar value.

Tested on: Molm-13 cells
Assay: Antiproliferative activity, CellTiter-Glo, 7 days (Test Example 2), Molm-13
Format: cell-based
Details: Homo sapiens, 168 h, 7 days incubation, read-out: MOLM13 IC50
Description: [0134] 1. Experimental Principle: MV-4-11, Molm-13, and OCI-AML-3 cells are human hematologic tumor cell lines harboring the Menin-MLL fusion. HL-60 is a wild-type human hematologic tumor cell line without Menin-MLL fusion. […] 2. Experimental Materials: MV-4-11, Molm-13, OCI-AML-3, and HL-60 cells were all purchased from Cobioer; CellTiter-Glo® was purchased from Promega (Cat. #G7571); RPMI-1640 was purchased from Viva Cell (Cat. #C3010-0500); IMDM was purchased from Viva Cell (Cat. #C3040-0500); fetal bovine serum (FBS) was purchased from Biosera (Cat. #FB-1058/500); penicillin-streptomycin was purchased from BasalMedia (Cat. #S110JV); 0.25% Trypsin-EDTA was purchased from BasalMedia (Cat. #S310KJ); dimethyl sulfoxide (DMSO) was purchased from Sinopharm (Cat. #30072418); 96-well plates were purchased from Corning (Cat. #3610); incubator was obtained from PHCbi (Model: MCO-18AC); inverted microscope was obtained from Mingmei (Cat. #MI52-0); automated cell counter was obtained from BodBoge (Model: JSY-SC-031N); microplate reader was obtained from PerkinElmer (Model: Envision); data processing software: GraphPad Prism 8.0. 3. […] After incubation at room temperature for 10 minutes, luminescence values were read using the EnVision microplate reader, and IC50 values were calculated using GraphPad Prism 8.0 software. […]

CCN(C(=O)c1cc(F)ccc1N1CCN([C@@H]2CCN([C@H](CCCN(C)CCOC)C(C)C)C2)c2ncncc21)C(C)C [Example 3]
pIC50: 7.57
